Laboratory results taken from patent US20250327794A1, “FLUOROMETRIC METHODS FOR DETECTION OF ALLERGIC SENSITIVITY TO ENVIRONMENTAL, FOODSTUFF, AND MEDICAMENT STIMULANTS” (CELL SCIENCE SYSTEMS CORPORATION, priority 2022, published 2025).

Assays:
white blood cells = test: DHR 123 flow cytometry blood test: RH 123 fluorescence (ROS generation), channel 1 FL1-A; format: cell-based, human
Experimental: See FIG. 1 and FIG. 2 for exemplary flow diagrams of the method. Whole peripheral blood samples were obtained from subjects and collected in lithium heparin tubes. Samples were diluted 1:100 in electrolyte solution supplemented with 10% heat-inactivated fetal-bovine serum (FBS). Samples were incubated with 5 μg of dihydrorhodamine 123 (DHR 123) at 37° C. under 5% CO2 for 15 min. Cells were treated with 1 μM Phorbol-12-Myristate-13-Acetate (PMA), an exogenous stimulant, or an equal volume of PBS (negative control), and incubated for 30 min to 1 hr.
RBCs of the sample were lysed, fixed, and removed prior to flow cytometry analysis. Briefly, cells were lysed and partially fixed using 3% (v/v) lysis buffer and 1% (v/v) formaldehyde in phosphate-buffered saline (PBS). Samples were incubated for 2 min or until turbidity of the solution was resolved indicating essentially complete lysis of RBCs, and the sample centrifuged at 300×g for 5 min at room temperature (RT). RBC-containing supernatant was discarded, and remaining leukocytes were fixed using 3.7% (v/v) formaldehyde and centrifuged at 300×g at RT for 5 min. Samples were washed twice in FBS and centrifuged at 300×g at RT for 5 min. After washing, the cells were blocked with FC block (Invitrogen, USA) and 2% FBS for 30 min on ice and then incubated with staining buffer containing manufacturer-specified dilutions of fluorophore-conjugated antibodies specific for granulocytes (e.g., neutrophils, basophils, and/or eosinophils) or granulocyte activation (e.g., degranulation). Cells were washed twice and resuspended in PBS prior to analysis using a BD Accuri C6 Flow Cytometer (BD Biosciences, USA). Statistical analysis was performed using the FlowJo v10 (FlowJo, Oregon, USA).
A sample of whole blood was treated with DHIR 123 or mock at 37° C. for 15 min, then treated with phorbol 12-myristate 13-acetate (PMA) and incubated for 25 min. Red and white blood cells were lysed and fixed as described above. Flow cytometry results are shown in FIGS. 3A-3D for negative control (FIG. 3A), DHR 123 only treated control (FIG. 3B), DHR 123+PMA treated (FIG. 3C), as well as an overlap plot of each (FIG. 3D).
Provided below is an exemplary protocol for DHR 123 treatment and cell surface marker staining for DHR 123 flow cytometry blood test. • 1. Obtain a blood sample from a subject; e.g., • 1 mL blood sample for each person was obtained. • 2. Treat with DHR 123 and/or stimulant (e.g., PMA); e.g., • 100 μL whole blood was used for each group: 1) cell only control; 2) DHR 123 loaded cells; 3) DHR 123 loaded cells stimulated with stimulant (e.g., PMA). […] Fix and lyse the cells; e.g., • After stimulant treatment, the cells were fixed and red blood cells were concurrently lysed by adding lysis/fixation solution (e.g., 850 μL (800 μl PBS, 25 μL lyse solution, […])) and incubating 5 min at room temperature. • 4. Prepare cells for staining; e.g., • Cells were centrifuged and the supernatant discarded; • Formaldehyde solution (e.g., 500 μL, 3.7% formaldehyde) was added and incubated for 5 more minutes for fixation; • Cells were centrifuged and the supernatant discarded; • Cells were washed with 350 μL PBS twice, and then centrifuged before discarding the supernatant; • Cells were centrifuged and the supernatant discarded; • 5. Stain the cells; e.g., • 80 μL staining buffer (PBS+0.1% albumin+0.01% tween 20) was added, along with 5 μL of antibody solution for CD16, CD123 and CD193 and the sample incubated for 30 min at room temperature; • 6. Prepare cells for flow cytometry; e.g., • Cells were washed with PBS, centrifuged and the supernatant discarded; • Cells were resuspended in 125 μL PBS for subsequent flow cytometer analysis.
Flow cytometry analysis of human blood samples was performed following exposure to exogenous dust mite (“DM”) stimulant using time course measurements of RH 123 and PI fluorescence. […]

granulocytes = test: Citrullinated histone H3 flow cytometry blood test (extracellular trap formation); format: cell-based, human
Text: Detection of extracellular traps formation was incorporated to improve flow cytometry analysis of granulocyte subpopulations. […] This example describes detection of granulocyte activation following exposure of human blood to exogenous stimulant, using dihydrorhodamine 123, propidium iodide, and citrullinated histone H3 staining.
Peripheral blood samples were collected, diluted, maintained, treated, lysed, and fixed as previously described. Samples were blocked as previously described and incubated with staining buffer containing a 1:400 dilution of Cit-H3 antibody (Cayman Chemical, Michigan, USA) for 30 min at RT. Following two wash steps, the samples were incubated with APC-conjugated secondary (1:200) (Columbia Biosciences, Maryland, USA) for 30 min and subsequent washing steps were performed to remove unbound antibodies. Cells were washed twice and resuspended in PBS prior to analysis using a BD Accuri C6 Flow Cytometer (BD Biosciences). Statistical analysis was performed using the FlowJo v10 (FlowJo). NETs were defined by the in-tandem use of the classis extracellular DNA/viability marker PI(+) and the extracellular trap marker Cit-H3(+). NET formation was quantified as a fold-change relative to the mean of the negative control samples.

[1] = after 40-minute stimulation of PMA

Question: What does the source list for `CCCCCCCCCCCCCC(=O)O[C@@H]1[C@@H](C)[C@@]2(O)[C@@H](C=C(CO)C[C@]3(O)C(=O)C(C)=C[C@@H]23)[C@@H]2C(C)(C)[C@]12OC(C)=O` [PMA, Phorbol-12-Myristate-13-Acetate]?
Answer: activation of granulocyte populations (summary of Example 2) (white blood cells): induced the activation of all granulocyte populations; stimulation of lymphocytes (in words) (white blood cells; CD33(−) lymphocyte population (M1)): not stimulated; Mean FL1-A (0.5 h) (white blood cells; R123, 0.5 h, PMA, RWP1 2.5 μL, MLK, CUC, BAS 5 μL per 100 μL blood (Table 5)): 58,792.96; Mean FL1-A (1.5 h) (white blood cells; R123, 1.5 h, PMA, RWP1 2.5 μL, MLK, CUC, BAS 5 μL per 100 μL blood (Table 5)): 168,741.44; Mean FL1-A (2.5 h) (white blood cells; R123, 2.5 h, PI stained, PMA, RWP1 2.5 μL, MLK, CUC, BAS 5 μL per 100 μL blood (Table 5)): 361,510.02; MFI (0.5 h) FL1-A (white blood cells; RH 123, 0.5 h incubation, PMA or DM 2 μL/100 μL blood): 5,076.27; MFI (1.5 h) FL1-A (white blood cells; RH 123, 1.5 h incubation, PMA or DM 2 μL/100 μL blood): 14,093.83; MFI (2.5 h) FL1-A (white blood cells; RH 123, 2.5 h, increased stimulant, 8 μL DM or RWP per 100 μL blood (Table 7)): 10,553.44; MFI (2.5 h) FL1-A (white blood cells; RH 123, 2.5 h incubation, PI stained, PMA or DM 2 μL/100 μL blood): 9,353.98; RH 123 average intensity of peak (white blood cells; [1]): about 10^6 unit; RH 123 average intensity relative to negative control (DHR 123 only) (white blood cells; [1]): ~500 times; RH 123 fluorescence / ROS generation (in words) (white blood cells; vs cells loaded with DHR 123 only): strong green fluorescence; RH 123 (FL1-A) and PI (FL3-A) fluorescence signal compared with cell-only group (granulocytes): higher; percentage cells positive for citrullinated histone H3 signals (granulocytes; after gating on FL3-A and FL4-A): high; PI staining signal (channel 3, FL3-A) (granulocytes; repeat, 8 μL stimulant/100 μL blood): stronger signals
